Source: patent US12286632B2, “Rationally-designed synthetic peptide shuttle agents for delivering polypeptide cargos from an extracellular space to the cytosol and/or nucleus of a target eukaryotic cell, uses thereof, methods and kits relating to same” (Feldan Bio Inc., priority 2016, dated 2025)
Ends that are not written are not given here. Peptide text beside a SMILES is read from it.

How the values were obtained:
in vitro [1] = settings: human, HeLa cells
in vitro [2] = settings: human, HeLa cells; remark: listed apart in the source
HeLa cells = assay: GFP-NLS protein transduction assay (flow cytometry: Pos cells %, viability %, relative fluorescence intensity; microscopy); settings: GFP-NLS 5 μM; for Cell viability (%) (±St. Dev.; n = 3): Protocol B; for Cell viability (%) (±St. Dev.; n = 3) / FIG. 21B Cell viability (%) (±St. Dev.; n = 3): HeLa; for FIG. 21B Cell viability (%) (±St. Dev.; n = 3): Table 8.1, 1 hour; for cell viability: peptide 20 μM, Protocol B (Table 10.3e)
[3] = Cell viability (%) (±St. Dev.; n = 3)
[4] = Table 10.3a, shuttle 50 μM, 10 seconds
[5] = Cell viability (%) (±St Dev.; n = 3)
[6] = Table 10.3e, shuttle 20 μM, 1 minute
[7] = Table 10.1, shuttle 50 μM, 10 seconds

Molecule | viability at 1 min, 10 µM (in vitro [1]; [3]) [%] | viability (in vitro [2]) [%] | other results
CC[C@H](C)[C@H](N)C(=O)N[C@H](C(=O)N[C@@H](CCCNC(=N)N)C(=O)N[C@@H](Cc1c[nH]cn1)C(=O)N[C@@H](CCC(=O)O)C(=O)N[C@@H](Cc1c[nH]cn1)C(=O)N[C@@H](CS)C(=O)N[C@@H](CCSC)C(=O)N[C@H](C(=O)N[C@@H](Cc1c[nH]cn1)C(=O)N[C@@H](CC(C)C)C(=O)N[C@@H](Cc1c[nH]c2ccccc12)C(=O)N[C@@H](Cc1ccc(O)cc1)C(=O)N[C@@H](CCCCN)C(=O)N[C@@H](CC(N)=O)C(=O)N[C@@H](CC(C)C)C(=O)N[C@@H](C)C(=O)N[C@@H](CCCCN)C(=O)N[C@@H](Cc1ccc(O)cc1)C(=O)N[C@@H](CS)C(=O)N[C@@H](CO)C(=O)N[C@H](C(=O)N[C@@H](CO)C(=O)N[C@@H](Cc1c[nH]cn1)C(=O)N[C@@H](C)C(=O)N[C@@H](CCCNC(=N)N)C(=O)N[C@@H](CCCNC(=N)N)C(=O)N[C@@H](CC(C)C)C(=O)N[C@@H](C)C(=O)N[C@@H](CCCNC(=N)N)C(=O)N[C@@H](CCCNC(=N)N)C(=O)N[C@@H](CCCNC(=N)N)C(=O)N[C@@H](C)C(=O)N[C@@H](Cc1c[nH]cn1)C(=O)N[C@@H](Cc1c[nH]cn1)C(=O)O)[C@@H](C)O)[C@@H](C)CC)C(C)C [FSD32] (H-IVRHEHCMIHLWYKNLAKYCSTSHARRLARRRAHH-OH) | 99.2 ± 3.37 | 98.36 ± 0.15 | 
CC[C@H](C)[C@H](NC(=O)[C@H](Cc1c[nH]cn1)NC(=O)[C@@H](NC(=O)[C@H](CC(C)C)NC(=O)[C@H](CS)NC(=O)[C@H](Cc1c[nH]cn1)NC(=O)[C@H](Cc1c[nH]cn1)NC(=O)[C@H](Cc1c[nH]cn1)NC(=O)[C@H](Cc1c[nH]cn1)NC(=O)[C@H](Cc1c[nH]cn1)NC(=O)[C@@H](N)Cc1c[nH]cn1)[C@@H](C)CC)C(=O)N[C@@H](Cc1c[nH]c2ccccc12)C(=O)N[C@@H](CCC(=O)O)C(=O)N[C@@H](C)C(=O)N[C@@H](CCCCN)C(=O)N[C@@H](CC(C)C)C(=O)N[C@@H](C)C(=O)N[C@@H](CCCCN)C(=O)N[C@@H](CCCCN)C(=O)N[C@@H](CS)C(=O)NCC(=O)NCC(=O)NCC(=O)NCC(=O)N[C@@H](Cc1ccc(O)cc1)C(=O)N[C@@H](C)C(=O)N[C@@H](CCCNC(=N)N)C(=O)N[C@@H](C)C(=O)N[C@@H](C)C(=O)N[C@@H](C)C(=O)N[C@@H](CCCNC(=N)N)C(=O)N[C@@H](CCC(N)=O)C(=O)N[C@@H](C)C(=O)N[C@@H](CCCNC(=N)N)C(=O)N[C@@H](C)C(=O)O [FSD36] (H-HHHHHHCLIHIWEAKLAKKCGGGGYARAAARQARA-OH) | 98.9 ± 0.38 | 97 ± 1.99 | 
CC[C@H](C)[C@H](NC(=O)[C@@H](NC(=O)[C@H](Cc1ccccc1)NC(=O)[C@@H](N)CCCCN)[C@@H](C)O)C(=O)N[C@H](C(=O)N[C@@H](Cc1ccccc1)C(=O)N1CCC[C@H]1C(=O)N[C@@H](Cc1c[nH]cn1)C(=O)N[C@@H](CC(N)=O)C(=O)N[C@@H](CCC(N)=O)C(=O)N[C@@H](CCCCN)C(=O)NCC(=O)N[C@@H](CC(N)=O)C(=O)N[C@@H](Cc1c[nH]c2ccccc12)C(=O)N[C@@H](CCCCN)C(=O)N[C@@H](CC(N)=O)C(=O)N[C@H](C(=O)N1CCC[C@H]1C(=O)N[C@@H](CO)C(=O)N[C@@H](CC(N)=O)C(=O)N[C@@H](Cc1ccc(O)cc1)C(=O)N[C@@H](Cc1c[nH]cn1)C(=O)N[C@@H](Cc1ccc(O)cc1)C(=O)N[C@@H](CS)C(=O)N1CCC[C@H]1C(=O)N[C@@H](Cc1ccc(O)cc1)C(=O)N[C@@H](C)C(=O)N[C@@H](CCCNC(=N)N)C(=O)N[C@@H](C)C(=O)N[C@@H](C)C(=O)N[C@@H](C)C(=O)N[C@@H](CCCNC(=N)N)C(=O)N[C@@H](CCC(N)=O)C(=O)N[C@@H](C)C(=O)N[C@@H](CCCNC(=N)N)C(=O)N[C@@H](C)C(=O)O)C(C)C)C(C)C [VSVG-PTD4] |  | 96.2 ± 2.57 | Cell viability (%) (±St. Dev.; n = 3) (HeLa cells; [4]): 100%
ALLGLFIKWVKKVGTLFRKAKAGAQNRRAKAQKGK [FSD26] |  | 97.2 ± 1.53 | viability (in vitro [1]; [5]): 59.3 ± 1.27%
GHHHHHHHLIHIWEAKLAKLAKALARAAARQARAK [FSD38] | 98.1 ± 7.35 | 95 ± 2.78 | 
HAHHAHHAHKWKLFKKIGAVLKVLTTGYARAAARQARA [3HA-CM18-PTD4] |  | 51.5 ± 4.83 | Cell viability (%) (±St. Dev.; n = 3) (HeLa cells; [6]): 43.6 ± 2.8%
HHHAHHHKWKLFKKIGAVLKVLTTGYARAAARQARA [HA-CM18-PTD4] |  | 53.2 ± 4.62 | Cell viability (%) (±St. Dev.; n = 3) (HeLa cells; [6]): 68.3 ± 4.1%
HHHHAAVLKLWKRLLKLFRKGRRLKAKRAKAKR [FSD20] |  | 20.5 ± 3.53 | viability (in vitro [1]; [5]): 65.4 ± 6.18%
HHHHHHCLLKKWEAKLAKKIGGGGRQARAKALAKA [FSD30] | 99.1 ± 0.52 | 97.4 ± 2.06 | 
HHHHHHHHHHHHKWKLFKKIGAVLKVLTTGYARAAARQARA [12His-CM18-PTD4] |  | 97.5 ± 1.57 | Cell viability (%) (±St. Dev.; n = 3) (HeLa cells; [6]): 33.4 ± 4.3%
HHHHHHHHRQRRRWEARGFLGGGGYARAARQARAA [FSD39] | 97.3 ± 2.07 | 99.2 ± 0.61 | 
HHHHHHHHRQRRRWEARGGFLGGGGYARAARQARA [FSD33] | 98.1 ± 1.73 | 75.3 ± 4.19 | 
HHHHHHHMAHLWESNARKFWKKAFAQHAAAHIAEA [FSD28] | 99.4 ± 4.04 | 97 ± 1.11 | 
HHHHHHKLIHIWEAKLFKKIRAAARQARARRAAKA [FSD34] | 97.9 ± 8.18 | 96.4 ± 2.41 | viability at 1 min, 10 µM (in vitro [1]; cell viability): 83.9 to 98%
HHHHHHKLLKRWEAKLAKALAKALAKHLAKALAKA [FSD35] | 81.7 ± 3.45 | 96.1 ± 1.67 | 
HHHHHHKWKIARAFARSLKKLYARLLARQAKTGHHHHHH [FSD15] |  | 98.3 ± 1.07 | viability (in vitro [1]): 96.1 ± 2.61%
HHHHHHKWKLARAFARAIKKLYARALRRQARTG [FSD8] |  | 42.3 ± 6.42 | viability (in vitro [1]; [5]): 64.8 ± 7.59%
HHHHHHKWKLARAFARAIKKLYARALRRQARTGHHHHHH [FSD9] | 79.5 ± 6.33 | 36.1 ± 3.41 | viability (in vitro [1]; [5]): 67.3 ± 5.19%; viability at 1 min, 8 µM (in vitro [1]; [3]): 82.3 ± 7.16%; viability at 2 min, 5 µM (in vitro [1]; [3]): 45.6 ± 3.64%

Molecule | viability at 1 min, 10 µM (in vitro [1]; [3]) [%] | viability (in vitro [2]) [%] | other results
HHHHHHKWKLARAFARALRAIKKLYARALRRQARTG [FSD11] |  | 46.2 ± 1.35 | viability (in vitro [1]; [5]): 60.9 ± 7.59%
HHHHHHKWKLFKKIGAVLKVLTTGRRRRRRRRR [His-CM18-9Arg] |  | 31.63 ± 0.11 | Cell viability (%) (±St. Dev.; n = 3) (HeLa cells; [7]): 45.8 ± 5.4%; Cell viability (%) (±St. Dev.; n = 3) (HeLa cells; [4]): 45.8 ± 3.53%
HHHHHHKWKLFKKIGAVLKVLTTGYARAAARQARAHHHHHH [His-CM18-PTD4-His] |  | 29.4 ± 2.38 | Cell viability (%) (±St. Dev.; n = 3) (HeLa cells; Table 10.3c, shuttle 10 μM, incubation 1 min): 68.1 ± 2.7%; Cell viability (%) (±St. Dev.; n = 3) (HeLa cells; Table 10.3c, shuttle 10 μM, incubation 2 min): 61.6 ± 3.2%; Cell viability (%) (±St. Dev.; n = 3) (HeLa cells; Table 10.3c, shuttle 10 μM, incubation 5 min): 41.2 ± 4.4%; Cell viability (%) (±St. Dev.; n = 3) (HeLa cells; [6]): 78.6 ± 1.1%
HHHHHHKWKLFKKIGAVLKVLTTGYGRKKRRQRRR [His-CM18-TAT] |  | 13.6 ± 0.18 | FIG. 21B Cell viability (%) (±St. Dev.; n = 3) (HeLa cells; shuttle 1 μM): 95 ± 3.05%; FIG. 21B Cell viability (%) (±St. Dev.; n = 3) (HeLa cells; shuttle 3 μM): 91 ± 5.18%; FIG. 21B Cell viability (%) (±St. Dev.; n = 3) (HeLa cells; shuttle 5 μM): 86 ± 4.59%; Cell viability (%) (±St. Dev.; n = 3) (HeLa cells; [7]): 35.2 ± 5.7%; Cell viability (%) (±St. Dev.; n = 3) (HeLa cells; [4]): 35.2 ± 5.7%
HHHHHHKWKLFWEAKLAKYARAAARQARAARQARA [FSD27] | 96.6 ± 4.94 | 98 ± 0.63 | viability at 1 min, 10 µM (in vitro [1]; cell viability): 83.9 to 98%
HHHHHHLLKLWSRLLKLWTQGRRLKAKRAKA [FSD16] |  | 99.07 ± 0.73 | viability (in vitro [1]; [5]): 88.2 ± 2.66%
HHHHHHWARLARAFARAIKKLYARALRRQARTG [FSD7] |  | 60.9 ± 7.59 | viability (in vitro [1]; [5]): 38.5 ± 3.48%
HHHHHHWLKLLRRAAKKAARLYRKLLRKARKLHHHHHH [FSD2] |  | 55.8 ± 4.19 | viability (in vitro [1]; [5]): 76.3 ± 5.99%
HHHKWKLFKKIGAVLKVLTTGYARAAARQARA [3His-CM18-PTD4] |  | 82 ± 6.81 | Cell viability (%) (±St. Dev.; n = 3) (HeLa cells; [6]): 39.2 ± 3.3%
KWKLFKKIGAVLKVLTTG [CM18, reference compound] |  | 99.4 ± 0.14 | Cell viability (%) (±St. Dev.; n = 3) (HeLa cells; Table 10.4, peptide 50 μM, 10 seconds): 95 ± 1.2%
KWKLFKKIGAVLKVLTTGGGSGGGSGGGSGYARAAARQARA [CM18-L3-PTD4] |  | 98.4 ± 0.83 | viability at 1 min, 20 µM (in vitro [1]): 71.9 ± 6%; cell viability (HeLa cells; 1 minute): increased cell viability
KWKLFKKIGAVLKVLTTGGGSGGGSYARAAARQARA [CM18-L2-PTD4] |  | 93.7 ± 3.07 | Cell viability (%) (±St. Dev.; n = 3) (HeLa cells; [6]): 64.0 ± 1.3%; cell viability (HeLa cells; 1 minute): increased cell viability
KWKLFKKIGAVLKVLTTGGGSYARAAARQARA [CM18-L1-PTD4] |  | 84.3 ± 5.64 | Cell viability (%) (±St. Dev.; n = 3) (HeLa cells; [6]): 50.1 ± 3.8%; cell viability (HeLa cells; 1 minute): increased cell viability
KWKLFKKIGAVLKVLTTGYARAAARQARA [CM18-PTD4] |  | 49.6 ± 5.06 | Cell viability (%) (±St. Dev.; n = 3) (HeLa cells; [6]): 33.9 ± 3.7%; cell viability (HeLa cells; 1 minute): 33.9%
LHHHHHKLIHIWEAKLAKALAKALARRAAARQARA [FSD41] | 79.5 ± 0.33 | 94.4 ± 2.81 | 
YGRKKRRQRRRCKWKLFKKIGAVLKVLTTG [TAT-CM18] |  | 44.8 ± 4.17 | Cell viability (%) (±St. Dev.; n = 3) (HeLa cells; [7]): 23.5 ± 1.1%; Cell viability (%) (±St. Dev.; n = 3) (HeLa cells; Table 10.3b, shuttle 50 μM, 10 seconds): 23.5 ± 1.1%
YGRKKRYMLRLWYQNLRMYCKKAYAQHRARQHAKL [FSD40] | 83.9 ± 4.16 | 98.6 ± 1.08 | viability at 1 min, 10 µM (in vitro [1]; cell viability): 83.9 to 98%
YHHHHHKWKKRWEAKLAKALRAAGRQARAKALAKA [FSD31] | 97.8 ± 4.22 | 98.43 ± 0.43 | 
